According to patent US7399869B2, “Fibroblast activation protein inhibitor compounds and methods” (Genentech, Inc., priority 2005, dated 2008):

Key:
Type in all cases: biochemical
FAP = biological target: T1, FAP (Homo sapiens, UniProt Q12884); assay: Hydrolysis of C-terminal coumarin dipeptide substrates by FAP (kinetic constants); design: FAP (amino acids 38-760); FLAG (N); made in house; host or cells: 293 cells (secreted, purified from serum-free conditioned media); details: protease FAP; unblocked vs N-blocked substrate
T1 sequence (Q12884 38-760): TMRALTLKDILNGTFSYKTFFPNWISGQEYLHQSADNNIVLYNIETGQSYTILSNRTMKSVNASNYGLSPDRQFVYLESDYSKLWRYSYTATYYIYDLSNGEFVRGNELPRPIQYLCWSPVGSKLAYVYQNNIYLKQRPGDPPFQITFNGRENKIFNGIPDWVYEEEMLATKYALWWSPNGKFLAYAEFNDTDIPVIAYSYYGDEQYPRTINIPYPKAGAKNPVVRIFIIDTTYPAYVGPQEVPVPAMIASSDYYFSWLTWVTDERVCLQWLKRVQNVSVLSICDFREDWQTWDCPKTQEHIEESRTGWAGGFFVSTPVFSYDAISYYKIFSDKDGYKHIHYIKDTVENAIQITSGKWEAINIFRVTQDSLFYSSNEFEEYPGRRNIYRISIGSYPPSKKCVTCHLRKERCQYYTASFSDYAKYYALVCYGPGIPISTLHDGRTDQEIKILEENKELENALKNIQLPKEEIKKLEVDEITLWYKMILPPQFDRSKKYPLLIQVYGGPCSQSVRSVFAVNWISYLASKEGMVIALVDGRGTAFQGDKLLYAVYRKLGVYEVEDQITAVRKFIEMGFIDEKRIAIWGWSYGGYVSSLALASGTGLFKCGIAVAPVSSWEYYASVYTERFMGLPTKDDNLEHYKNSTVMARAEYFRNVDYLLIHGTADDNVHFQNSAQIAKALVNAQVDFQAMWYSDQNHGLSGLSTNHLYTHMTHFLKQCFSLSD
Experimental: (§1) The relative cleavage rates by FAP and several dipeptidases of N-blocked (8) and unblocked (7) Gly-Pro dipeptide substrates were measured.
(§2) The cleavage (hydrolysis) rates of various C-terminal coumarin dipeptide substrates 7-16 by FAP and DPP-4 were measured (Tables 4 and 5). The amino-terminus of the substrates was unblocked and the amino acids were varied in Table 4. The amino-terminus of the substrates was blocked and the amino acids were varied in Table 5. To extend the results obtained with the dipeptide substrate library, kinetic parameters were determined for cleavage of the unblocked dipeptide substrates by FAP (Table 4). The catalytic efficiency (kcat/Km) for substrate cleavage was greatest with Ile-Pro-AFC, followed by Ala-Pro-, Gly-Pro- and Phe-Pro-AFC, consistent with the dipeptide substrate library results (FIG. 5). […] Kinetic constants for cleavage of Ala-Pro-AFC and Gly-Pro-AFC by DPP-4 were determined (Table 4). The catalytic efficiency for Ala-Pro-AFC hydrolysis was greater than that for Gly-Pro-AFC, and consistent with the dipeptide library.
(§3) Protease Assays—Protease activity was monitored continuously using a SpectraMax M2 microplate reader (Molecular Devices Corp., Sunnyvale Calif.) in the kinetic mode. Assays were conducted at 23° C. in 50 mM Tris (pH 7.4), 100 mM NaCl, 1 mM EDTA. The excitation/emission wavelengths for the different fluorogenic substrates were 360/460 nm (AMC), 400/505 nm (AFC), 340/425 nm (MNA), 340/510 nm (EDANS), and 337/425 nm (Abs). Standard curves of the appropriate fluorescent product versus concentration were used to convert relative fluorescence units to nmol of product produced. Substrates in the X-Pro-AMC library were used in rate assays at 5 μM final concentration. […] The kinetic parameters were calculated from Michaelis-Menten plots (V0 versus [S]) with nonlinear regression analysis using GraphPad software. kcat values were calculated under the assumption that each protease was 100% active.
(§4) When saturating amounts of substrate could not be achieved, catalytic efficiencies (kcat/Km) were determined under pseudo-first order conditions ([S]<<the estimated Km) and fit to the following equation: Ln[St/S0]=−kobst, where St is the concentration of substrate remaining at time t, S0 is the initial substrate concentration and kobs is the apparent first order substrate cleavage constant equal to (kcat/Km) times ET, the total enzyme concentration (Copeland, R. (2000) Enzymes, A Practical Introduction to Structure, Mechanism, and Data Analysis, 2nd Ed., John Wiley and Sons, Inc, New York). The linear relationship of Ln[St/S0] versus time allows calculation of kcat/Km by dividing the slope of the plot by ET.

DPP-8 = biological target: T2, DPP-8 (Homo sapiens, UniProt Q6V1X1); assay: Relative cleavage of unblocked and N-blocked Gly-Pro-AFC by DPP-8; details: protease DPP-8; unblocked vs N-blocked substrate
T2 construct: 2-883 of DPP-8; FLAG (N); made in house; host or cells: 293 cells; template plasmid from Origene
Experimental: as §1, §3

DPP-9 = biological target: T3, DPP-9 (Homo sapiens, UniProt Q86TI2); assay: Relative cleavage of unblocked and N-blocked Gly-Pro-AFC by DPP-9; details: protease DPP-9; unblocked vs N-blocked substrate
T3 construct: 2-864 of DPP-9; FLAG (N); made in house; host or cells: 293 cells; template plasmid from Origene
Experimental: as §1, §3

DPP-4 = DPP-4 (Homo sapiens, UniProt P27487); assay: Hydrolysis of C-terminal coumarin dipeptide substrates by DPP-4 (kinetic constants); design: DPP-4 (amino acids 39-766); FLAG (N); made in house; host or cells: 293 cells (secreted, purified from serum-free conditioned media); details: protease DPP-4; unblocked vs N-blocked substrate
Experimental: as §1, §2, §3, §4

APH = biological target: T4, APH (Homo sapiens, UniProt P13798); assay: Relative cleavage of unblocked and N-blocked Gly-Pro-AFC by APH; details: protease APH; unblocked vs N-blocked substrate
T4 construct: 2-732 of APH; FLAG (N); made in house; host or cells: 293 cells; template plasmid from Origene
T4 sequence (P13798 2-732): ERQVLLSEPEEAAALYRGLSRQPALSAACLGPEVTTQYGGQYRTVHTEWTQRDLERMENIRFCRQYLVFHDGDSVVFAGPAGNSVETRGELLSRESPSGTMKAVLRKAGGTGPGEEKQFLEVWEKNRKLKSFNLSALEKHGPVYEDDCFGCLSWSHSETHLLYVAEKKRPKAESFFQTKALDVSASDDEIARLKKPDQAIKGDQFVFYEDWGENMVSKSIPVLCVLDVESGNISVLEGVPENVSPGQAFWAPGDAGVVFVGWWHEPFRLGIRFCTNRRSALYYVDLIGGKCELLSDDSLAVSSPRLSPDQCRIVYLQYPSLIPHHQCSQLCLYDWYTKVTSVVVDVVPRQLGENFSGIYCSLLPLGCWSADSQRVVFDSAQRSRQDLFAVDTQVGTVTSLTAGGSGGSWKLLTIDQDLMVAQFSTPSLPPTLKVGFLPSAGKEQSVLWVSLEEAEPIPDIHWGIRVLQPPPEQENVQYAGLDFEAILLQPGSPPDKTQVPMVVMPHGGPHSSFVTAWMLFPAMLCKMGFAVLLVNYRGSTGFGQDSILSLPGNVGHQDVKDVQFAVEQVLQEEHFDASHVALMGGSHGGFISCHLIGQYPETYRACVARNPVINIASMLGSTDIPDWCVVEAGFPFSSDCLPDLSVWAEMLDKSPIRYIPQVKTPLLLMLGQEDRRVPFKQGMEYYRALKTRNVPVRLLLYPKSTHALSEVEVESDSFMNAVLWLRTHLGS
Experimental: as §1, §3

DPP-7 = biological target: T5, DPP-7 (Homo sapiens, UniProt Q9UHL4); assay: Relative cleavage of unblocked and N-blocked Gly-Pro-AFC by DPP-7; details: protease DPP-7; unblocked vs N-blocked substrate
T5 construct: These constructs encoded amino acids 26-492 of DPP-7; FLAG (N); made in house; host or cells: 293 cells; template plasmid from Origene
Experimental: as §1, §3

POP = biological target: T6, POP (Homo sapiens, UniProt P48147); assay: Inhibition of POP by N-blocked boroPro compounds
T6 construct: 2-710 of POP; FLAG (N); made in house; host or cells: 293 cells; template plasmid from Origene
T6 sequence (P48147 2-710): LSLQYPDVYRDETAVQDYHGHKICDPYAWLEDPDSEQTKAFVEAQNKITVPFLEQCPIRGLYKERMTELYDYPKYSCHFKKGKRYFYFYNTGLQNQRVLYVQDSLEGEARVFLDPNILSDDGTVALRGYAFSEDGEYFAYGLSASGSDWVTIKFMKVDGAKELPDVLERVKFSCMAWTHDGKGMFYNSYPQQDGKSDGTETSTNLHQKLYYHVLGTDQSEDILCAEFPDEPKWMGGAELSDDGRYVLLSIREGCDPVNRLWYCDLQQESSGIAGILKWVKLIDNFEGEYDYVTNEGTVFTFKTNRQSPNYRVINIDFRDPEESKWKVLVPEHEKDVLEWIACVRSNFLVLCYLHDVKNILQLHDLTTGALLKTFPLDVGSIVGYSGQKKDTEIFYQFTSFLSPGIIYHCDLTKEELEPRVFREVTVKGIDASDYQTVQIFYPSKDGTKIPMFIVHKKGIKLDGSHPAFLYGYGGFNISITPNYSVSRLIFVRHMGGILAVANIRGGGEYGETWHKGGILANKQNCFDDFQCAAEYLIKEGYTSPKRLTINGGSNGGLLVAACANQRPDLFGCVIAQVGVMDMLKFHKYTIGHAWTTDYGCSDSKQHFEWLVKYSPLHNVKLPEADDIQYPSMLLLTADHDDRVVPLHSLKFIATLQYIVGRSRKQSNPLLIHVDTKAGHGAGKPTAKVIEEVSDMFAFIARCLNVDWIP
Experimental: Briefly, proteases were added to a reaction mixture containing inhibitor and substrate (Ac-Ala-AMC for APH, Z-Gly-Pro-AMC for POP, and Ala-Pro-AFC for all others) in assay buffer at 23° C. Protease activity was followed continuously as described above to monitor time-dependent inhibition. Data were plotted as V0/Vi−1 versus [I], where V0 is the rate if substrate hydrolysis in the absence of inhibitor, Vi is the steady state rate of substrate hydrolysis in the presence of inhibitor and [I] is the concentration of Ac-Gly-BoroPro.
KI values for inhibition of proteases by 5 were determined using the method of progress curves. Briefly, proteases (10-100 nM) were added to a reaction mixture containing inhibitor 5 (0-10 μM) and substrate AP-AFC in assay buffer at 23° C. […] Data were plotted as V0/Vi−1 versus [I], where V0 is the rate if substrate hydrolysis in the absence of inhibitor, Vi is the steady state rate of substrate hydrolysis in the presence of inhibitor and [I] is the concentration of 5. […] Ki, the true equilibrium inhibition constant was determined according to the following relationship: Ki=Kobs/(1+[S]/Km), where [S] is the concentration of substrate used in the assay and Km is the Michaelis constant for substrate cleavage.
Plasmids encoding full-length proteases were obtained from Origene Technologies Inc., Rockville Md. […]

T2 sequence (Q6V1X1 18-898 limits assumed): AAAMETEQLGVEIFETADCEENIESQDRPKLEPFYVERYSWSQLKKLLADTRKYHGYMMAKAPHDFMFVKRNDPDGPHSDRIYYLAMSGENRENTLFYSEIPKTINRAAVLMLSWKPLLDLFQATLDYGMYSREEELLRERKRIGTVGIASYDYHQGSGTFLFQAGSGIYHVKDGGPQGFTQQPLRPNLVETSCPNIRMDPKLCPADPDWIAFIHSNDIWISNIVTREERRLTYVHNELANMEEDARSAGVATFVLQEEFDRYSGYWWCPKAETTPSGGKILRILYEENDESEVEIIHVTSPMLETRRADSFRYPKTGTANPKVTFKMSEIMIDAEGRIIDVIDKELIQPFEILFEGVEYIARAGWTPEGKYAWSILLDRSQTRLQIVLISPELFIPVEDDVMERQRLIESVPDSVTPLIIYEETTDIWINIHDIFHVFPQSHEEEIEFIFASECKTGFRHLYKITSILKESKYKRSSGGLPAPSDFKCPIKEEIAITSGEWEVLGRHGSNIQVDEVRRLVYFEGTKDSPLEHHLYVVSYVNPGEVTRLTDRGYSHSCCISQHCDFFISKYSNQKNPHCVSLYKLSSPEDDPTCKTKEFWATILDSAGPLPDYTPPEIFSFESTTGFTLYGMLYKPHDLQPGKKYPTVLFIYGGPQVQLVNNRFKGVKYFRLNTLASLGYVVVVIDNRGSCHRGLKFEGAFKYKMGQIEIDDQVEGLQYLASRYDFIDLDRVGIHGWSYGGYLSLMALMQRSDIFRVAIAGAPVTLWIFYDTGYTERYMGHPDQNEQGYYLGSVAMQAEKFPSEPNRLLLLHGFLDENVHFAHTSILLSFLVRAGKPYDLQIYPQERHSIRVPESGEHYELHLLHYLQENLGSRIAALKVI
T3 sequence (Q86TI2 2-863 limits assumed): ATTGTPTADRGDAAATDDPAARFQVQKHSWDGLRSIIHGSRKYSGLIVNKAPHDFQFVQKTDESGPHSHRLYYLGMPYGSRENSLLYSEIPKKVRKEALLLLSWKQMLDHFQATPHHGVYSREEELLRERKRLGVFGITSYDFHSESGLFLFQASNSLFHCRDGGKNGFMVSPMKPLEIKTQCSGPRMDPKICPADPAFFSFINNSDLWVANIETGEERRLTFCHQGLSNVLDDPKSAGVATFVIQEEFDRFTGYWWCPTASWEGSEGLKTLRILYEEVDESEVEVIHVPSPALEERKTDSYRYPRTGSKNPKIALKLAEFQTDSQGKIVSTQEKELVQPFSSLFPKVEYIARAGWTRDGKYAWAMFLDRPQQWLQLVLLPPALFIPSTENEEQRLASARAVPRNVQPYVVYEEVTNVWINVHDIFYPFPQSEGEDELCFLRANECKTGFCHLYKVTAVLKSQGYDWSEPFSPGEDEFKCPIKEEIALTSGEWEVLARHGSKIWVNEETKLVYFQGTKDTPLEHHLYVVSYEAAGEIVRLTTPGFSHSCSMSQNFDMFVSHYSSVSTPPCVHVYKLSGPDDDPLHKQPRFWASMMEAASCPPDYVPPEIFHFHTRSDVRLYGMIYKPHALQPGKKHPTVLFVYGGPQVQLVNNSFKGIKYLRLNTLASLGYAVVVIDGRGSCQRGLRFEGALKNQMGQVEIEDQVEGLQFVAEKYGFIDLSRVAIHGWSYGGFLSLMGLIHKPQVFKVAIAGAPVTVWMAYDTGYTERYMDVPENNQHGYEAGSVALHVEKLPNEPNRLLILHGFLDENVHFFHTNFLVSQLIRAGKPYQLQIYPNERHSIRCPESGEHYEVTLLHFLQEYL
DPP-4, sequence (P27487 39-766): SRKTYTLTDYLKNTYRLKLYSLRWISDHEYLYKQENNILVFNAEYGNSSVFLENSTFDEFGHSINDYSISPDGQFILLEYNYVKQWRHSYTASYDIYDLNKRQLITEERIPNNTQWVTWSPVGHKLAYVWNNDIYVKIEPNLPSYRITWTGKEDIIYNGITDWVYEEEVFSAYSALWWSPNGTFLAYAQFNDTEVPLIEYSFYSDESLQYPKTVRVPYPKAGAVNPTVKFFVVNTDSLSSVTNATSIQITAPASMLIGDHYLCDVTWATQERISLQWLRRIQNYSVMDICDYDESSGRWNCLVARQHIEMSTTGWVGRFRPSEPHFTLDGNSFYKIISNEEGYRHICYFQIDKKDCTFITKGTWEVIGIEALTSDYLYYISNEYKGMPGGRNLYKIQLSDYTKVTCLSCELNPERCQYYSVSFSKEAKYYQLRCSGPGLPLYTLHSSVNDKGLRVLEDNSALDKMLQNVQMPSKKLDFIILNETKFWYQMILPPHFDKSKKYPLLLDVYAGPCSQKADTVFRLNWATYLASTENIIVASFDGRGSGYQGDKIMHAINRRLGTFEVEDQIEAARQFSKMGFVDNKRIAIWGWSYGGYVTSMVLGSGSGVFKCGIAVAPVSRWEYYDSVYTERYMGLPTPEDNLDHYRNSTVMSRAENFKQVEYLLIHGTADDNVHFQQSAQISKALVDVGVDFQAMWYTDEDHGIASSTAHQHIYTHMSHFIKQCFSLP

Relative Activity Gly-Pro-AFC 7/Ac-Gly-Pro-AFC 8 (FAP)	Relative Activity Gly-Pro-AFC 7/Ac-Gly-Pro-AFC 8 (DPP-8)	Relative Activity Gly-Pro-AFC 7/Ac-Gly-Pro-AFC 8 (DPP-9)	Relative Activity Gly-Pro-AFC 7/Ac-Gly-Pro-AFC 8 (DPP-4)	Relative Activity Gly-Pro-AFC 7/Ac-Gly-Pro-AFC 8 (APH)	Relative Activity Gly-Pro-AFC 7/Ac-Gly-Pro-AFC 8 (DPP-7)	Ki (POP) [µM]	Compound
1.0	33	10,000	10,000	no cleavage	200	–	NCC(=O)N1CCCC1C(=O)Nc1ccc2c(C(F)(F)F)c(CC(N)=O)c(=O)oc2c1 (stereo not drawn) [Gly-Pro-AFC 7, Gly-Pro-AFC]
–	–	–	–	–	–	0.063	CC(C)C(=O)N(C)CC(=O)N1CCCC1B(O)O (stereo not shown) [N-isobutyryl-sarcosyl-boroPro]
